Assay results from US5705518A, “Method of activating photosensitive agents” (University of British Columbia, priority 1995, dated 1998).
Like-named read-outs stand apart in the source and are kept apart here.

How the values were obtained:
[1] = mouse, in vivo, iv; cited from earlier work
[2] = tested on: M-1 tumor; test: Comparison PDT with light three hours post injection (FIG. 3), M-1 tumor mouse; conditions: 2.0 mg/kg BPD-MA, 100 J/cm^2, 4 days (FIG. 3)
[3] = tested on: M-1 tumor; test: Anti-tumor efficacy BPD-MA dose-response study (FIG. 4); format: in vivo, mice; conditions: 2.0 mg/kg (only group of 0.5, 1.0, 1.5, 2.0 mg/kg); 150 J/cm^2; three hours post injection
Method: FIG. 4 illustrates an anti-tumor efficacy dose-response study for BPD-MA, liposomal formulation. […] Light exposure took place three hours after injection.
For comparison, FIGS. 4 and 5 are provided. FIG. 4 summarizes results of a test involving the same mouse-tumor model, in which four different BPD-MA doses were given (0.5, 1.0, 1.5, and 2.0 mg/kg). Light exposure was 150 J/cm^2, administered after a post injection interval of three hours of darkness. Under this regimen, which is similar to current clinical regimens, the only group that was over 50% tumor free at 14 days was that group of mice receiving 2.0 mg/kg.

[4] = mouse, in vivo, iv, cited from earlier work
[5] = tested on: M-1 tumor; test: Light dose-response study at 690 nm (FIG. 5); format: in vivo, mice; conditions: 2 mg/kg BPD-MA, three hours post injection
Method: FIG. 5 illustrates a light dose-response study at 690 nm and with a BPD-MA dose of 2 mg/kg. […] Light exposure took place three hours after the injection of 2 mg/kg BPD-MA.
FIG. 5 summarizes results of a test involving the same mouse-tumor model, in which five different light exposures (50, 75, 100, 125 and 150 J/cm^2) were used three hours post injection with 2 mg/kg BPD-MA. Under this regimen, which is similar to current clinical regimens, 75% of the mice receiving 150 J/cm^2 and 50% of the mice receiving 125 J/cm^2 were tumor free at 14 days.

[6] = tested on: M-1 tumor cells; test: Dose ranging study: drug dose, light dose and post injection interval, M-1 tumor-bearing mice; format: in vivo, DBA/2 mice
[7] = tested on: M-1 (murine rhabdomyosarcoma) tumor; test: Pilot study of shorter post injection intervals: PDT of M-1 tumor-bearing mice, light 15 min after liposomal BPD-MA; format: in vivo, DBA/2 mice; conditions: light 15 min post injection
Method: Liposomal BPD was dried and stored frozen at -20° C. in 1 ml aliquots. The appropriate number of aliquots were thawed immediately before use and diluted with 5% dextrose in water for injection into the animals.
Male DBA/2 mice (7-11 weeks old; Charles River Laboratories, St. Constant, Quebec, Canada) were used in these studies, unless otherwise specified. Shaving and depilation removed the hair very effectively from appropriate body surfaces. The mice were shaved and depilated with a commercially available depilator (Nair®) at least one day before being used in the experiments. Following injection the mice were kept in the dark for various lengths of time, as described below. Before and after the experiments the mice were kept in an animal facility with 12 hours of light and 12 hours of dark daily.
An argon pumped dye laser, whose power source was obtained from Spectra Physics (Series 2000, Mountain View, Calif.) and whose 5W argon ion pumped dye laser was obtained from Coherent (Model 599, Palo Alto, Calif.) was used to deliver a columnated beam of light having a wavelength of 690 (±3) nm. The argon laser was aimed at the skin to irradiate the tumor. The time of light exposure was varied to give different light doses, such as 50, 75 and 100 Joules/cm^2.
DBA/2 mice (weight 22±1 g) were used in this study. […]

[8] = tested on: subcutaneous rat gliosarcomas; conditions: in vivo; cited from earlier work
[9] = tested on: bladder cancer; conditions: human, in vivo, cited from earlier work
[10] = human, in vivo; cited from earlier work
[11] = 0.5 mg/kg, 50 J/cm^2, 30 min post injection, 2 mice, interim
[12] = 0.5 mg/kg, 75 J/cm^2, 15 min post injection, 2 mice, interim
[13] = 0.5 mg/kg, 100 J/cm^2, 15 min post injection, 5 mice, interim
[14] = 1.0 mg/kg, 50 J/cm^2, 15 min post injection, 4 mice, interim
[15] = 1.0 mg/kg, 50 J/cm^2, 30 min post injection, 5 mice, interim
[16] = 1.0 mg/kg, 75 J/cm^2, 15 min post injection, 5 mice, interim
[17] = 1.0 mg/kg, 100 J/cm^2, 15 min post injection, 4 mice, interim

C=Cc1c(C)c2cc3nc(cc4[nH]c(cc5nc(cc1[nH]2)C1(C)C5=CC=C(C(=O)OC)C1C(=O)OC)c(C)c4CCC(=O)O)C(CCC(=O)OC)=C3C (stereo not drawn) [BPD-MB]
Tumor-skin ratios [1]: favorable

benzoporphyrin derivative monoacid ring A [BPD-MA]
survival of mouse [2]: alive
tumor eradication [2]: the tumor was eradicated
tumor palpability [2]: The tumor was not palpable
tumor free at 14 days [3]: over 50%
BPD-MA in the tumor that was active ([4]; 3 h): 100%
BPD-MA in the tumor that was active ([4]; 24 h): 39%
degradation in livers and kidneys compared with tumors [4]: Both livers and kidneys degraded BPD-MA more quickly than did the tumors
tumor free at 14 days ([5]; 125 J/cm^2): 50%
tumor free at 14 days ([5]; 150 J/cm^2): 75%
mice that developed tumors ([6]; 0.5 mg/kg BPD-MA, 50 J/cm^2, 30 minutes post injection): all mice developed tumors
tumor free at day 7 ([6]; 0.5 mg/kg BPD-MA, 100 J/cm^2, 15 minutes post injection, day 7, five mice): all were tumor free at day 7
mice that developed tumors by day 14 ([6]; 0.5 mg/kg BPD-MA, 100 J/cm^2, 15 minutes post injection, day 14): Three of five mice
# Tumor-Free, Day 7 ([6]; 0.5 mg/kg, 50 J/cm^2, 1 min post injection, 3 mice, interim): 3 mice
# Tumor-Free, Day 7 ([6]; 0.5 mg/kg, 50 J/cm^2, 15 min post injection, 2 mice, interim): 2 mice
# Tumor-Free, Day 7 [6, 11]: 0 mice
# Tumor-Free, Day 14 [6, 11]: 0 mice
# Tumor-Free, Day 7 column (observations on Day 2 post exposure) ([6]; 0.5 mg/kg, 75 J/cm^2, 1 min post injection, 2 mice, observed Day 2, interim): 2 mice
# Tumor-Free, Day 7 [6, 12]: 2 mice
# Tumor-Free, Day 14 [6, 12]: 2 mice
# Tumor-Free, Day 7 ([6]; 0.5 mg/kg, 100 J/cm^2, 1 min post injection, 3 mice, interim): 3 mice
# Tumor-Free, Day 7 [6, 13]: 5 mice
# Tumor-Free, Day 14 [6, 13]: 2 mice
# Tumor-Free, Day 7 ([6]; 0.5 mg/kg, 100 J/cm^2, 30 min post injection, 2 mice, interim): 2 mice
# Tumor-Free, Day 7 ([6]; 1.0 mg/kg, 50 J/cm^2, 1 min post injection, 4 mice, interim): 4 mice
# Tumor-Free, Day 7 [6, 14]: 4 mice
# Tumor-Free, Day 14 [6, 14]: 4 mice
# Tumor-Free, Day 7 [6, 15]: 4 mice
# Tumor-Free, Day 14 [6, 15]: 4 mice
# Tumor-Free, Day 7 [6, 16]: 5 mice
# Tumor-Free, Day 14 [6, 16]: 4 mice
# Tumor-Free, Day 7 ([6]; 1.0 mg/kg, 75 J/cm^2, 30 min post injection, 5 mice, interim): 4 mice
# Tumor-Free, Day 7 [6, 17]: 4 mice
# Tumor-Free, Day 14 [6, 17]: 4 mice
tumor free, animals followed to day 14 ([6]; all regimens of Table 1, day 14, interim): most are tumor free
survival of mouse ([7]; 0.5 mg/kg BPD-MA, 75 J/cm^2, 24 hours (FIG. 2)): alive
survival of mouse ([7]; 1 mg/kg BPD-MA, 100 J/cm^2, 48 hours (FIG. 1)): alive

hematoporphyrin derivative
safety of direct injection compared with parenteral injection [8]: direct injection appeared to be safer than parenteral injection

porfimer sodium
time of occurrence of skin phototoxicity ([9]; iv, 2 mg/kg): ≤ 10 days
patients with irritative bladder symptoms [9]: Five
duration of photosensitivity (patient warning) [10]: six
relationship of photosensitivity to injected drug dose [10]: no apparent relationship of photosensitivity to injected drug dose
